# Experimental data: US20140255392A1 (BAYER INTELLECTUAL PROPERTY GMBH, priority 2011, published 2014)
# pIC50: −log10 of the molar value.
# Target: T1, human kinase Mps-1 (Homo sapiens, UniProt P33981)
# T1 construct: N-terminally GST-tagged human full length recombinant Mps-1 kinase; GST (N); purchased Invitrogen, Karslruhe, Germany PV4071
# T1 sequence (P33981 1-857): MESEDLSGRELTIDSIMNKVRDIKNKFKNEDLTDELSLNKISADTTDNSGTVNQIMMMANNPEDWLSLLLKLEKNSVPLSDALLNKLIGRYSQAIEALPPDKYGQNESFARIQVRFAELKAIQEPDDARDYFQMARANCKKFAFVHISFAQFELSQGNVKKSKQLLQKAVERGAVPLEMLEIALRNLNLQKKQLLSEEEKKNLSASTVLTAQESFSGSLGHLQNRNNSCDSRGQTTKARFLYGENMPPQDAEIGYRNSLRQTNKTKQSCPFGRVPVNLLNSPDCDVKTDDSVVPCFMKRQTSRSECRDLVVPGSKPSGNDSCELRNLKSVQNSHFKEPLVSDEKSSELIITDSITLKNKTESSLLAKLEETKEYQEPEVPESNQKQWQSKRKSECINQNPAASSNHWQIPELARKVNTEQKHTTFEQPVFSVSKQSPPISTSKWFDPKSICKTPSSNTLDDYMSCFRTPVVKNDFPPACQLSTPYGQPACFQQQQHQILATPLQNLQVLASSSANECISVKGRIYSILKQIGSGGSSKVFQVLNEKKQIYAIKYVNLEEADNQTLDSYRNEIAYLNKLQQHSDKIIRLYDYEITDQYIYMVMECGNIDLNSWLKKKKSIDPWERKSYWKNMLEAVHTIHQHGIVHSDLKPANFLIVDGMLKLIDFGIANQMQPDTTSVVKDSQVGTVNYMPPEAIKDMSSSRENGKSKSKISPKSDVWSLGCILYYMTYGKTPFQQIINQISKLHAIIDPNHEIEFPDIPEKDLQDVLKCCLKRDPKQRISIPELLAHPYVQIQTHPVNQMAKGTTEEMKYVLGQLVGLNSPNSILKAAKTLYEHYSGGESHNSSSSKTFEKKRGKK
# Assay: Mps-1 kinase assay (TR-FRET)
# Assay type: biochemical
# Conditions: N-terminally GST-tagged human full length recombinant Mps-1; 10 μM ATP; 1 μM peptide substrate; 60 min at 22° C.
# Summary of the method: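 Inhibition of Mps-1 (N-terminal GST fusion, full length) toward a biotinylated peptide is read as Eu-to-XLent TR-FRET. Enzyme level, around 1 nM final, follows lot activity.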
row,SMILES,pIC50
1,"CNC(=O)c1ccc(-c2cnc3c(NCCC(F)(F)F)cc(-c4ccncc4)cn23)cc1C [Example 88, N,2-dimethyl-4-{6-(pyridin-4-yl)-8-[(3,3,3-trifluoropropyl)amino]imidazo[1,2-a]pyridin-3-yl}benzamide]",8.01
2,"C#Cc1cc(NCCC(F)(F)F)c2ncc(-c3ccc(C(=O)NCC)c(C)c3)n2c1 [Example 15, N-ethyl-4-{6-ethynyl-8-[(3,3,3-trifluoropropyl)amino]imidazo[1,2-a]pyridin-3-yl}-2-methylbenzamide]",7.26
3,"COc1ccc(Oc2cc(NCCC(F)(F)F)c3ncc(-c4ccc(C(=O)NC5CC5)c(C)c4)n3c2)c(F)c1 [Example 69, N-cyclopropyl-4-{6-(2-fluoro-4-methoxyphenoxy)-8-[(3,3,3-trifluoropropyl)amino]imidazo[1,2-a]pyridin-3-yl}-2-methylbenzamide]",9.00
4,"Cc1cc(-c2cnc3c(NCCC(F)(F)F)cc(Sc4ccccc4N)cn23)ccc1C(=O)NC1CC1 [Example 3-4, 4-{6-[(2-aminophenyl)sulfanyl]-8-[(3,3,3-trifluoropropyl)amino]imidazo[1,2-a]pyridin-3-yl}-N-cyclopropyl-2-methylbenzamide]",8.70
5,"CNC(=O)c1ccc(-c2cnc3c(NCCC(F)(F)F)cc(CCO)cn23)cc1C [Example 142, 4-{6-(2-Hydroxyethyl)-8-[(3,3,3-trifluoropropyl)amino]imidazo[1,2-a]pyridin-3-yl}-N,2-dimethylbenzamide]",6.61
6,"CCNC(=O)c1ccc(-c2cnc3c(NCCC(F)(F)F)cc(Oc4cccc(O)c4)cn23)cc1C [Example 138, N-ethyl-4-{6-(3-hydroxyphenoxy)-8-[(3,3,3-trifluoropropyl)amino]imidazo[1,2-a]pyridin-3-yl}-2-methylbenzamide]",8.89
7,"COCCNc1cc(Oc2ccc(F)c(F)c2)cn2c(-c3ccc(C(=O)NC4CC4)c(C)c3)cnc12 [Example 171, N-cyclopropyl-4-{6-(3,4-difluorophenoxy)-8-[(2-methoxyethyl)amino]imidazo[1,2-a]pyridin-3-yl}-2-methylbenzamide]",6.94
8,COCCNc1cc(Oc2ccccc2C)cn2c(-c3ccc(C(=O)NC4CC4)c(C)c3)cnc12 [Example 170],6.75
9,"CCNC(=O)c1ccc(-c2cnc3c(NCCC(F)(F)F)cc(C#CCO)cn23)cc1C [Example 21, N-ethyl-4-{6-(3-hydroxyprop-1-yn-1-yl)-8-[(3,3,3-trifluoropropyl)amino]imidazo[1,2-a]pyridin-3-yl}-2-methylbenzamide]",7.47
10,Cc1cc(-c2cnc3c(NCCC(F)(F)F)cc(S(C)(=O)=O)cn23)ccc1C(=O)NC1CC1 [Example 5-1],7.08
11,"C/C=C/c1cc(NCCC(F)(F)F)c2ncc(-c3ccc(C(=O)N[C@H]4C[C@@H]4F)c(C)c3)n2c1 (relative stereo) [Example 116, N-[rel-(1S,2S)-2-fluorocyclopropyl]-2-methyl-4-{6-[(1E)-prop-1-en-1-yl]-8-[(3,3,3-trifluoropropyl)amino]imidazo[1,2-a]pyridin-3-yl}benzamide]",7.70
12,"Cc1cc(-c2cnc3c(NCCC(F)(F)F)cc(Oc4cccc(Cl)c4)cn23)ccc1C(=O)NC1(C#N)CC1 [Example 37, 4-{6-(3-chlorophenoxy)-8-[(3,3,3-trifluoropropyl)amino]imidazo[1,2-a]pyridin-3-yl}-N-(1-cyanocyclopropyl)-2-methylbenzamide]",7.64
13,"C=Cc1cc(NCCC(F)(F)F)c2ncc(-c3ccc(C(=O)NC)c(C)c3)n2c1 [Example 93, N,2-dimethyl-4-{8-[(3,3,3-trifluoropropyl)amino]-6-vinylimidazo[1,2-a]pyridin-3-yl}benzamide]",7.16
14,"Cc1cc(-c2cnc3c(NCCC(F)(F)F)cc(Oc4ccc(OCc5ccccc5)cc4)cn23)ccc1C(=O)NC1CC1 [Example 109, 4-{6-[4-(benzyloxy)phenoxy]-8-[(3,3,3-trifluoropropyl)amino]imidazo[1,2-a]pyridin-3-yl}-N-cyclopropyl-2-methylbenzamide]",7.75
15,"COc1ccc(Oc2cc(NCCC(F)(F)F)c3ncc(-c4ccc(C(=O)N[C@H]5C[C@@H]5F)c(C)c4)n3c2)cc1F (relative stereo) [Example 124, N-[rel-(1S,2S)-2-fluorocyclopropyl]-4-{6-(3-fluoro-4-methoxyphenoxy)-8-[(3,3,3-trifluoropropyl)amino]imidazo[1,2-a]pyridin-3-yl}-2-methylbenzamide]",9.15
16,"Cc1cc(-c2cnc3c(NCCC(F)(F)F)cc(Sc4ccccc4O)cn23)ccc1C(=O)NC1CC1 [Example 3-6, N-cyclopropyl-4-{6-[(2-hydroxyphenyl)sulfanyl]-8-[(3,3,3-trifluoropropyl)amino]imidazo[1,2-a]pyridin-3-yl}-2-methylbenzamide]",9.40
17,"Cc1cc(-c2cnc3c(NCCC(F)(F)F)cc(CCCO)cn23)ccc1C(=O)NC1CC1 [Example 128, N-cyclopropyl-4-{6-(3-hydroxypropyl)-8-[(3,3,3-trifluoropropyl)amino]imidazo[1,2-a]pyridin-3-yl}-2-methylbenzamide]",8.02
18,"Cc1ccc(F)cc1Oc1cc(NCCC(F)(F)F)c2ncc(-c3ccc(C(=O)NC4(C#N)CC4)c(C)c3)n2c1 [Example 28, N-(1-cyanocyclopropyl)-4-{6-(5-fluoro-2-methylphenoxy)-8-[(3,3,3-trifluoropropyl)amino]imidazo[1,2-a]pyridin-3-yl}-2-methylbenzamide]",7.86
19,"Cc1cc(-c2cnc3c(NCCC(F)(F)F)cc(Sc4ccccc4)cn23)ccc1C(=O)NC1CC1 [Example 3-3, N-cyclopropyl-2-methyl-4-{6-(phenylsulfanyl)-8-[(3,3,3-trifluoropropyl)amino]imidazo[1,2-a]pyridin-3-yl} benzamide]",9.30
20,"CCNC(=O)c1ccc(-c2cnc3c(NCCC(F)(F)F)cc(-c4ccncc4)cn23)cc1C [Example 89, N-ethyl-2-methyl-4-{6-(pyridin-4-yl)-8-[(3,3,3-trifluoropropyl)amino]imidazo[1,2-a]pyridin-3-yl}benzamide]",8.16
21,"Cc1cc(-c2cnc3c(NCCC(F)(F)F)cc(Oc4cccc(F)c4)cn23)ccc1C(=O)N[C@@H]1C[C@H]1C (relative stereo) [Example 48, Rel-4-{6-(3-fluorophenoxy)-8-[(3,3,3-trifluoropropyl)amino]imidazo[1,2-a]pyridin-3-yl}-2-methyl-N-[(1R,2R)-2-methylcyclopropyl]benzamide]",8.68
22,"CNC(=O)c1ccc(-c2cnc3c(NCCC(F)(F)F)cc(-c4ccc(C(=O)NC5(CO)CC5)c(C)c4)cn23)cc1C [Example 155, 4-{6-(4-{[1-(hydroxymethyl)cyclopropyl]carbamoyl}-3-methylphenyl)-8-[(3,3,3-trifluoropropyl)amino]imidazo[1,2-a]pyridin-3-yl}-N,2-dimethylbenzamide]",7.68
23,"Cc1cc(-c2cnc3c(NCCC(F)(F)F)cc(Sc4cccc(F)c4F)cn23)ccc1C(=O)NC1CC1 [Example 3-2, N-cyclopropyl-4-{6-[(2,3-difluorophenyl)sulfanyl]-8-[(3,3,3-trifluoropropyl)amino]imidazo[1,2-a]pyridin-3-yl}-2-methylbenzamide]",9.52
24,"C=Cc1cc(NCCC(F)(F)F)c2ncc(-c3ccc(C(=O)N[C@H]4C[C@@H]4C)c(C)c3)n2c1 (relative stereo) [Example 98, 2-Methyl-N-[rel-(1S,2S)-2-methylcyclopropyl]-4-{8-[(3,3,3-trifluoropropyl)amino]-6-vinylimidazo[1,2-a]pyridin-3-yl}benzamide]",7.53
25,"Cc1cc(-c2cnc3c(NCCC(F)(F)F)cc(Oc4ccccc4)cn23)ccc1C(=O)NC1(C#N)CC1 [Example 57, N-(1-cyanocyclopropyl)-2-methyl-4-{6-phenoxy-8-[(3,3,3-trifluoropropyl)amino]imidazo[1,2-a]pyridin-3-yl}benzamide]",7.90
26,"Cc1cc(-c2cnc3c(NCCC(F)(F)F)cc(Oc4ccc(OC(F)(F)F)cc4)cn23)ccc1C(=O)NC1(C#N)CC1 [Example 65, N-(1-cyanocyclopropyl)-2-methyl-4-{6-[4-(trifluoromethoxy)phenoxy]-8-[(3,3,3-trifluoropropyl)amino]imidazo[1,2-a]pyridin-3-yl}benzamide]",6.88
27,COc1ccccc1-c1cc(NCCC(F)(F)F)c2ncc(-c3ccc(C(=O)NC4(C)CC4)c(C)c3)n2c1 [Example 80],7.45
28,"CNC(=O)c1ccc(-c2cnc3c(NCCC(F)(F)F)cc(Oc4ccc(OC)c(F)c4)cn23)cc1C [Example 106, 4-{6-(3-Fluoro-4-methoxyphenoxy)-8-[(3,3,3-trifluoropropyl)amino]imidazo[1,2-a]pyridin-3-yl}-N,2-dimethylbenzamide]",8.80
